The values below are quoted from earlier work in US11286226B2, “Polycyclic carbogenic molecules and uses thereof as anti-cancer agents” (Northwestern University, priority 2017, dated 2022).

pIC50: −log10 of the molar value.

For one series, the system named is Plasmodium falciparum. Conditions: reported value (ref. 60); read-out: IC50 against the malaria parasite Plasmodium falciparum; cited from earlier work.
For the next series, the system named is normal human cells. Conditions: reported (ref. 60); cited from earlier work.

As for `[C-]#[N+][C@]1(C)[C@H](C)C[C@@H]2C[C@H](C)[C@H]3CC[C@](C)([N+]#[C-])[C@H]4CC[C@H]1[C@@H]2[C@H]34` [Compound 39, (+)-7,20-diisocyanoadociane], the pIC50 in the series on Plasmodium falciparum is 8.33. Further, the “activity against normal human cells” value in the series on normal human cells is reported as “inert”.

As usually defined, the pIC50 is the negative decadic logarithm of the IC50, by convention in mol/L.
